# Experimental data published in patent US20110217715A1, “GENE EXPRESSION IN DUCHENNE MUSCULAR DYSTROPHY” (CHILDREN'S HOSPITAL MEDICAL CENTER, priority 2008, published 2011).
# System: mRNA expression in peripheral blood of individuals with DMD
# Assay: Whole-blood gene expression microarray: DMD administered deflazacort vs DMD administered prednisone
# Format: in vivo, human
# Description: Fifteen ml of blood was collected from each individual into 6 PAXgene® Vacutainer® tubes (PreAnalytiX, Germany) by antecubital fossa venipuncture. PAXgene® tubes contain a proprietary reagent that immediately stabilizes RNA, thus reducing RNA degradation and minimizing gene expression changes following phlebotomy. The tubes were then inverted 20 times, then remained undisturbed for 2 h at room temperature (about 19° C. to about 22° C.), and then stored at -70° C. until processed. Total RNA was isolated using the Paxgene® blood RNA kit (PreAnalytiX, Germany) according to the manufacturers instructions. The RNA isolated is from all cells in whole blood. Typical yields of total RNA isolated from about 7.5 ml of human whole blood were between 10 μg RNA and 40 μg RNA. RNA quality and purity was analyzed by spectrophotometry using the Nanodrop ND-1000, and RNA integrity was analyzed using the Agilent 2100 Bioanalyzer. […] Sample labeling, hybridization to chips, and image scanning were performed using standard Affymetrix protocols. For each whole blood sample from control individuals and individuals with DMD, total RNA was labeled using the One-Cycle Target Labeling protocol and hybridized to the arrays. […] Double-stranded cDNA synthesis, biotin-labeled cRNA synthesis, and cRNA fragmentation were performed according to the Affymetrix GeneChip Eukaryotic Expression Analysis protocol. The labeled, fragmented cRNA (15 μg) was hybridized at 45° C. overnight. After hybridization, the array was washed and stained. The arrays were scanned with an argon-ion laser at λ=570 nm, with a resolution of 3 μm/pixel (Affymetrix, Inc.). After scanning the array, the raw probe level values for each probe were saved in Affymetrix.cel files. […] Statistical analyses, including t-test analyses, unsupervised hierarchical clustering, and principal component analyses were conducted using Genespring 7.2 software ([…]® 7, Silicon Genetics, Redwood City Calif.). […] Corrections for multiple comparisons used a Benjamini-Hochberg False Discovery Rate (FDR) of 0.05, disclosed in Tang et al., J Cereb Blood Flow Metab 26 (2006) 1089, which is expressly incorporated by reference herein in its entirety. […] Sample processing and array hybridization, probe-level data analysis, and statistical analysis were identical to Example 1.
smiles,measurement,setting,value
CC(=O)OCC(=O)[C@@]12N=C(C)O[C@@H]1C[C@H]1[C@@H]3CCC4=CC(=O)C=C[C@]4(C)[C@H]3[C@@H](O)C[C@@]12C [deflazacort],p-value,"gene PECAM1, Genbank AA702701, Nucleic Acid No. 2155",0.00909
same,p-value,"gene PECAM1, Genbank M37780, Nucleic Acid No. 2154",0.00421
same,p-value,"gene PF4V1, Genbank NM_002620, Nucleic Acid No. 2156",0.0164
same,p-value,"gene PFKFB3, Genbank NM_004566, Nucleic Acid No. 2157",0.0338
same,p-value,"gene PHACTR2, Genbank AA551142, Nucleic Acid No. 2158",0.039
same,p-value,"gene PHACTR2, Genbank NM_014721, Nucleic Acid No. 2159",0.0451
same,p-value,"gene PHCA, Genbank R12678, Nucleic Acid No. 2160",0.0221
same,p-value,"gene PHF21A, Genbank BC015714, Nucleic Acid No. 2161",0.0231
same,p-value,"gene PHGDHL1, Genbank AF339764, Nucleic Acid No. 2162",0.0444
same,p-value,"gene PIAS1, Genbank AI732802, Nucleic Acid No. 2163",0.0349
same,p-value,"gene PICALM, Genbank AL135735, Nucleic Acid No. 2164",0.0165
same,p-value,"gene PICALM, Genbank AV722190, Nucleic Acid No. 762",0.0363
same,p-value,"gene PLEK, Genbank NM_002664, Nucleic Acid No. 2165",0.000252
same,p-value,"gene PLEKHA2, Genbank BF347859, Nucleic Acid No. 886",0.0183
same,p-value,"gene PLEKHM1, Genbank AB002354, Nucleic Acid No. 2166",0.0134
same,p-value,"gene PLSCR1, Genbank AI825926, Nucleic Acid No. 2167",0.0487
same,p-value,"gene PLXNB2, Genbank BC004542, Nucleic Acid No. 2168",0.0177
same,p-value,"gene PPGB, Genbank NM_000308, Nucleic Acid No. 2170",0.0193
same,p-value,"gene PPIG, Genbank AW970944, Nucleic Acid No. 2171",0.011
same,p-value,"gene PPM1F, Genbank BC013798, Nucleic Acid No. 2172",0.0208
same,p-value,"gene PPP3CA, Genbank AA532718, Nucleic Acid No. 2173",0.0165
same,p-value,"gene PRKACA, Genbank NM_002730, Nucleic Acid No. 2174",0.00184
same,p-value,"gene PRKAR1A, Genbank AI682905, Nucleic Acid No. 2175",0.0262
same,p-value,"gene PRKAR2B, Genbank NM_002736, Nucleic Acid No. 1688",0.0441
same,p-value,"gene PRKCD, Genbank NM_006254, Nucleic Acid No. 2176",0.0077
same,p-value,"gene PROK2, Genbank AF182069, Nucleic Acid No. 2177",0.0338
same,p-value,"gene PSENEN, Genbank NM_018468, Nucleic Acid No. 2178",0.0201
same,p-value,"gene PTGS1, Genbank NM_000962, Nucleic Acid No. 329 (first entry)",0.0419
same,p-value,"gene PTGS1, Genbank NM_000962, Nucleic Acid No. 329 (second entry)",0.0226
same,p-value,"gene PTGS1, Genbank S36219, Nucleic Acid No. 1667",0.0474
same,p-value,"gene PTGS2, Genbank AY151286, Nucleic Acid No. 2179",0.0187
same,p-value,"gene PTPN12, Genbank AL079909, Nucleic Acid No. 2180",0.00163
same,p-value,"gene PTPRE, Genbank AA775177, Nucleic Acid No. 2181",0.0161
same,p-value,"gene RAB8A, Genbank BC002977, Nucleic Acid No. 2185",0.00561
same,p-value,"gene RAB11FIP1, Genbank NM_025151, Nucleic Acid No. 2182",0.0397
same,p-value,"gene RAB11FIP4, Genbank BG248313, Nucleic Acid No. 465",0.047
same,p-value,"gene RAB18, Genbank AU145607, Nucleic Acid No. 2183",0.0414
same,p-value,"gene RAB31, Genbank NM_006868, Nucleic Acid No. 2184",0.0378
same,p-value,"gene RAC1, Genbank AJ012502, Nucleic Acid No. 551",0.0328
same,p-value,"gene RAI17, Genbank AF070622, Nucleic Acid No. 1313",0.0318
same,p-value,"gene RAP1A, Genbank AW793677, Nucleic Acid No. 2186",0.0194
same,p-value,"gene RAP80, Genbank AF113675, Nucleic Acid No. 2187",0.00717
same,p-value,"gene RARA, Genbank AJ417079, Nucleic Acid No. 2188",0.00262
same,p-value,"gene RASA1, Genbank AK021812, Nucleic Acid No. 2189",0.0372
same,p-value,"gene RBBP5, Genbank NM_005057, Nucleic Acid No. 2190",0.0383
same,p-value,"gene REL, Genbank NM_002908, Nucleic Acid No. 2191",0.0166
same,p-value,"gene RERE, Genbank H71242, Nucleic Acid No. 2192",0.0354
same,p-value,"gene RFWD2, Genbank BF725688, Nucleic Acid No. 2193",0.0334
same,p-value,"gene RFX2, Genbank AK024288, Nucleic Acid No. 2194",0.0472
same,p-value,"gene RG9MTD3, Genbank AI214944, Nucleic Acid No. 2195",0.0449
same,p-value,"gene RHOQ, Genbank BC033251, Nucleic Acid No. 2196",0.0402
same,p-value,"gene RIN3, Genbank AA625133, Nucleic Acid No. 2197",0.0322
same,p-value,"gene RIT1, Genbank AL037450, Nucleic Acid No. 1675",0.0214
same,p-value,"gene RNF24, Genbank BC000213, Nucleic Acid No. 2198",0.0415
same,p-value,"gene ROCK1, Genbank AL050032, Nucleic Acid No. 2199",0.0356
same,p-value,"gene RSU1, Genbank AW515913, Nucleic Acid No. 2200",0.0152
same,p-value,"gene RUFY1, Genbank NM_025158, Nucleic Acid No. 2201",0.0258
same,p-value,"gene RUFY2, Genbank NM_017987, Nucleic Acid No. 2202",0.00853
same,p-value,"gene SEC14L1, Genbank NM_003003, Nucleic Acid No. 2203",0.0303
same,p-value,"gene SEC23B, Genbank BC005032, Nucleic Acid No. 2204",0.0301
same,p-value,"gene SECTM1, Genbank BF939675, Nucleic Acid No. 2205",0.0499
same,p-value,"gene SERPINA1, Genbank AF119873, Nucleic Acid No. 2207",0.0459
same,p-value,"gene SERPINA1, Genbank NM_000295, Nucleic Acid No. 2206",0.022
same,p-value,"gene SF3A2, Genbank L21990, Nucleic Acid No. 2208",0.0469
same,p-value,"gene SGK, Genbank NM_005627, Nucleic Acid No. 2209",0.028
same,p-value,"gene SH3BGRL2, Genbank AL035700, Nucleic Acid No. 1736",0.0258
same,p-value,"gene pp9099, Genbank NM_025201, Nucleic Acid No. 2169",0.0311
same,number of genes significantly up-regulated,"of the 508 genes, deflazacort compared to prednisone",30 genes
